Measurements: US20220388919A1, “UREA-BASED BLEND COMPOSITION AND METHOD FOR THE MANUFACTURE THEREOF” (Yara International ASA, priority 2019, published 2022)

Assay: nBTPT recovered after storage in bags (HPLC, CEN 15688-2007)
Type: physicochemical
Details: bagged conditions without the presence of a head space (exclusion of moisture and atmospheric gasses)
Experimental: For lab scale experiments, 1.2 kg of solid UAS fertilizer material was added to a lab scale drum. In a next step, the nBTPT/stabilizer material was slowly added. A residence time of 10 minutes was applied, and the rotating speed of the drum was consequently the same in each experiment. In case a moisture-repellent coating was added, a nebulizer was used and depending on the order of addition, the moisture-repellent coating was added before or after addition of the nBTPT material. Before use, the moisture-repellent coating was preheated to 80° C. Larger scale experiments with amounts up to 40 kg of fertilizer material were performed in a concrete mixer.
Optionally, a zinc sulphate, anhydrous zinc sulphate or monohydrate zinc sulphate, was coated on the particles (0.46 weight %). […] Product samples were taken at different times from a bag and the amount of nBTPT still present was measured by HPLC according to the procedure CEN 15688-2007, the results are presented in FIG. 1. […]
Urea particles containing 46 weight % of nitrogen was coated with 0.046 weight % of nBTPT, as urease inhibitor, and an inorganic stabilizer, magnesium oxide (0.023 weight %). […] Product samples were taken at different times and the amount of nBTPT still present was measured by HPLC according to the procedure CEN 15688-2007, the results are presented in FIG. 5. […]

## CCCCNP(N)(N)=S [nBTPT, N-(n-butyl) thiophosphoric triamide]
  stability of the urease inhibitor: further increased
